Test results published in US11693163B2, “Optical filter and imaging device” (AGC Inc., priority 2015, dated 2023).

What was measured:
[1] = Solubility of NIR dye to resin solution; assay type: physicochemical; settings: stirred two hours; for Solubility evaluation, Polyimide resin: 12.5 mass % C3450 in cyclohexanone:NMP=1:1, 50° C.; for Solubility evaluation, Polyester resin: 12.5 mass % OKP850 in cyclohexanone:NMP=1:1, 50° C.; for Solubility evaluation, Polyethersulfone resin: 12.5 mass % PES4800 in cyclohexanone:NMP=1:1, 50° C.
Protocol: Results are illustrated in Table 8 together with the kinds of the used dyes. Note that the temperature of the resin solution in the solubility test was set to 50° C., the NIR dye was put into the resin solution, the resultant resin solution was stirred for two hours, and the presence/absence of occurrence of the dissolution was observed visually. Evaluation criteria of the solubility are as follows.
A: Solubility of 9 mass % or more
B: Solubility of 7 mass % or more and less than 9 mass %
C: Solubility of 5 mass % or more and less than 7 mass %
D: Solubility of 3 mass % or more and less than 5 mass %
E: Solubility of 1 mass % or more and less than 3 mass %
F: Solubility of less than 1 mass %

[2] = Absorption characteristic of NIR dye in dichloromethane; assay type: physicochemical
Description: The obtained NIR dyes were each dissolved in dichloromethane, and an ultraviolet-visible spectrophotometer (manufactured by Hitachi High Technologies Co., Ltd., U-4100 type) was used to measure each spectral transmittance curve, from which a maximum absorption wavelength λmax, a wavelength λ80 at which the transmittance becomes 80% on a shorter wavelength side than the maximum absorption wavelength with the transmittance at the maximum absorption wavelength set to 10%, a difference between the maximum absorption wavelength λmax and the wavelength λ80 (λmax−λ80), a maximum absorption constant εA in light of a wavelength range of 430 to 550 nm, a maximum absorption constant εB in light of a wavelength range of 670 to 730 nm, and a ratio of these (εB/εA) were calculated. Note that the U-4100 type was used for the measurement of spectral transmittance curves in each of the following examples.

SMILES | Solubility evaluation, Polyimide resin [1] | Solubility evaluation, Polyester resin [1] | Solubility evaluation, Polyethersulfone resin [1] | εA (maximum absorption constant, 430 to 550 nm) [2] | εB (maximum absorption constant, 670 to 730 nm) [2] | εB/εA [2] | λ80 (wavelength of 80% transmittance, shorter side of λmax, transmittance at λmax set to 10%) [2] [nm] | λmax (maximum absorption wavelength) [2] [nm] | λmax-λ80 [2] [nm]
COC(=O)Nc1cc2c(cc1C1=C([O-])C(=c3cc4c(cc3NC(=O)OC)=[N+](C)C(C)C4(C)C)C1=O)C(C)(C)C(C)N2C (stereo not drawn) [A1-1] | E (1 mass % or more and less than 3 mass %) | D (3 mass % or more and less than 5 mass %) | E (1 mass % or more and less than 3 mass %) | 0.014 | 1 | 71.1 | 632 | 691 | 59
CCCOC(=O)Nc1cc2c(cc1C1=C([O-])C(=c3cc4c(cc3NC(=O)OCCC)=[N+](C)C(C)C4(C)C)C1=O)C(C)(C)C(C)N2C (stereo not drawn) [A1-2] | A (9 mass % or more) | A (9 mass % or more) | A (9 mass % or more) | 0.017 | 1 | 59.0 | 633 | 691 | 58
CCCCCOC(=O)Nc1cc2c(cc1C1=C([O-])C(=c3cc4c(cc3NC(=O)OCCCCC)=[N+](C)C(C)C4(C)C)C1=O)C(C)(C)C(C)N2C (stereo not drawn) [A1-3] | A (9 mass % or more) | A (9 mass % or more) | A (9 mass % or more) | 0.013 | 1 | 77.5 | 633 | 691 | 58
CCCCC(CC)COC(=O)Nc1cc2c(cc1C1=C([O-])C(=c3cc4c(cc3NC(=O)OCC(CC)CCCC)=[N+](C)C(C)C4(C)C)C1=O)C(C)(C)C(C)N2C (stereo not drawn) [A1-4] | A (9 mass % or more) | A (9 mass % or more) | A (9 mass % or more) | 0.019 | 1 | 53.5 | 632 | 690 | 58
CCCc1ccc(OC(=O)Nc2cc3c(cc2C2=C([O-])C(=c4cc5c(cc4NC(=O)Oc4ccc(CCC)cc4)=[N+](C)C(C)C5(C)C)C2=O)C(C)(C)C(C)N3C)cc1 (stereo not drawn) [A1-5] | F (Less than 1 mass %) | F (Less than 1 mass %) | F (Less than 1 mass %) | 0.016 | 1 | 63.9 | 636 | 693 | 57
CCCOC(=O)Nc1cc2c(cc1C1=C([O-])C(=c3cc4c(cc3NC(=O)OCCC)=[N+](C(C)C)C(C)C4(C)C)C1=O)C(C)(C)C(C)N2C(C)C (stereo not drawn) [A1-6] | A (9 mass % or more) | A (9 mass % or more) | A (9 mass % or more) | 0.016 | 1 | 63.9 | 647 | 697 | 50
CCCCCOC(=O)Nc1cc2c(cc1C1=C([O-])C(=c3cc4c(cc3NC(=O)OCCCCC)=[N+](C(C)C)C(C)C4(C)C)C1=O)C(C)(C)C(C)N2C(C)C (stereo not drawn) [A1-7] | A (9 mass % or more) | A (9 mass % or more) | A (9 mass % or more) | 0.016 | 1 | 61.8 | 647 | 697 | 50
CC(C)OC(=O)Nc1cc2c(cc1C1=C([O-])C(=c3cc4c(cc3NC(=O)OC(C)C)=[N+](C(C)C)C(C)C4(C)C)C1=O)C(C)(C)C(C)N2C(C)C (stereo not drawn) [A1-8] | A (9 mass % or more) | A (9 mass % or more) | A (9 mass % or more) | 0.017 | 1 | 60.2 | 647 | 697 | 50
CCCc1ccc(OC(=O)Nc2cc3c(cc2C2=C([O-])C(=c4cc5c(cc4NC(=O)Oc4ccc(CCC)cc4)=[N+](C(C)C)C(C)C5(C)C)C2=O)C(C)(C)C(C)N3C(C)C)cc1 (stereo not drawn) [A1-9] | E (1 mass % or more and less than 3 mass %) | E (1 mass % or more and less than 3 mass %) | E (1 mass % or more and less than 3 mass %) | 0.013 | 1 | 75.7 | 651 | 700 | 49
CCCOC(=O)Nc1cc2c(cc1C1=C([O-])C(=c3cc4c(cc3NC(=O)OCCC)=[N+](C(C)(C)CC)C(C)C4(C)C)C1=O)C(C)(C)C(C)N2C(C)(C)CC (stereo not drawn) [A1-10] | A (9 mass % or more) | A (9 mass % or more) | A (9 mass % or more) | 0.018 | 1 | 55.5 | 658 | 705 | 47
CCCCCOC(=O)Nc1cc2c(cc1C1=C([O-])C(=c3cc4c(cc3NC(=O)OCCCCC)=[N+](C(C)(C)CC)C(C)C4(C)C)C1=O)C(C)(C)C(C)N2C(C)(C)CC (stereo not drawn) [A1-11] | A (9 mass % or more) | A (9 mass % or more) | A (9 mass % or more) | 0.016 | 1 | 61.3 | 658 | 705 | 47
CCCOC(=O)Nc1cc2c(cc1C1=C([O-])C(=c3cc4c(cc3NC(=O)OCCC)=[N+](C(C)(CC)CC)C(C)C4(C)C)C1=O)C(C)(C)C(C)N2C(C)(CC)CC (stereo not drawn) [A1-12] | A (9 mass % or more) | A (9 mass % or more) | A (9 mass % or more) | 0.017 | 1 | 59.7 | 656 | 707 | 51
CCCCCOC(=O)Nc1cc2c(cc1C1=C([O-])C(=c3cc4c(cc3NC(=O)OCCCCC)=[N+](C(C)(CC)CC)C(C)C4(C)C)C1=O)C(C)(C)C(C)N2C(C)(CC)CC (stereo not drawn) [A1-13] | A (9 mass % or more) | A (9 mass % or more) | A (9 mass % or more) | 0.019 | 1 | 51.8 | 659 | 707 | 48
CCCCC(CC)C(=O)Nc1cc2c(cc1C1=C([O-])C(=c3cc4c(cc3NC(=O)C(CC)CCCC)=[N+](C(C)C)C(C)C4(C)C)C1=O)C(C)(C)C(C)N2C(C)C (stereo not drawn) [A3, reference compound] | – | – | – | 0.020 | 1 | 49.1 | 656 | 706 | 50
CCCCCCCOc1ccc(C(=O)Nc2cc3c(cc2C2=C([O-])C(=c4cc5c(cc4NC(=O)c4ccc(OCCCCCCC)cc4)=[N+](C(C)C)C(C)C5(C)C)C2=O)C(C)(C)C(C)N3C(C)C)cc1 (stereo not drawn) [A4, reference compound] | – | – | – | 0.029 | 1 | 34.7 | 659 | 710 | 51
